From publication PMC8776092, “A Toxoplasma gondii Oxopurine Transporter Binds Nucleobases and Nucleosides Using Different Binding Modes” (International Journal of Molecular Sciences, 2022)
“And” between values parts separate entries of the source, which are not always exact repeats. Equal entries are not always repeated. Where two headings read alike, the source gives them in different places.

Columns and labels:
[1] = biological target: T1, Tg244440 (Toxoplasma gondii, UniProt A0A125YNC9); experiment: [3H]-guanine uptake and its inhibition in T. brucei TbNB-KO procyclics expressing Tg244440 (clone F5); format: cell-based; conditions: for Ki: competition with 50 nM [3H]-guanine, 30 s, Cheng-Prusoff; for Sum of δ(ΔG^0) for the 7-deaza and 9-deaza analogues: analogues of the named nucleobase; for ΔG^0 (Gibbs free energy of interaction): calculated from Km or Ki, ΔG0 = −RTln(Ki); for Summation of the Gibbs free energy of the proposed interactions (binding model), Σ: substrate binding model, Figure 5, for adenosine base group only; for Rate of [3H]-guanine uptake, +Tg244440: clone F5
T1 sequence (A0A125YNC9 1-462): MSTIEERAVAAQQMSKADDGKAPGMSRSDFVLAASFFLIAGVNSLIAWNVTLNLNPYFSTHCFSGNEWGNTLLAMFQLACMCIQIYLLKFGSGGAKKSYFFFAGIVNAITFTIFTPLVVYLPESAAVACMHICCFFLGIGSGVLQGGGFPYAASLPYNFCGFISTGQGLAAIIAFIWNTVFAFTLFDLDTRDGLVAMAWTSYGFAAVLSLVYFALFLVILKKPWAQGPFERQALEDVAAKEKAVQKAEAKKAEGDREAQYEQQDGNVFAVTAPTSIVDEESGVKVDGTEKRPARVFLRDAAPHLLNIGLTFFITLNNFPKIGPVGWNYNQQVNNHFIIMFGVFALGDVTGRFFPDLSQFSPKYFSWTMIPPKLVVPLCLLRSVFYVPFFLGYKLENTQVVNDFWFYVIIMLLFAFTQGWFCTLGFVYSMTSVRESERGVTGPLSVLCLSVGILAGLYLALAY
Method: (§1) Briefly, PCF cells of T. brucei in logarithmic growth were harvested by centrifugation at 1000× g for 10 min, washed twice in AB and then resuspended in fresh buffer at a final density of 10^8 cells/mL. […] Immediately after finishing the assay, all tubes were flash-frozen in liquid nitrogen and the cell pellets were cut into scintillation vials and lysed with a solution of 2% SDS for one hour under agitation. Then, 3 mL of scintillation fluid (Scintilogic U, Lablogic) was added to each vial and left agitating overnight on a rocking platform. The next morning, the vials were vigorously shaken to ensure optimal mixing and the scintillation was measured in a 300SL (Hidex) scintillation counter. All assays were carried out in triplicate. All experimental data such as Km, Ki and Vmax values are the average and SEM of at least three separate experiments, each in triplicate, unless otherwise indicated.
(§2) Background scintillation was measured in vials containing no cells or radiolabeled substrate, and counts associated with extracellular radiolabel were calculated from samples where cells were briefly incubated with the same concentration of radiolabel, but in the presence of saturating concentrations of non-radiolabeled substrate before centrifugation through oil. The average of the three control replicates was subtracted from each data point.

[2] = biological target: T1, Tg244440; conditions: clone F5
Method: as §1, §2

[3] = test system: TgNBT1; conditions: tachyzoites; cited from earlier work
[4] = biological target: T1, Tg244440; format: cell-based; conditions: 0.1 μM [3H]-permeant, 60 s, clones B11, F5 and G10
Method: (§3) Figure 2 Uptake of radiolabelled nucleosides and nucleobases by in three clonal lines of T. brucei NB-KO procyclics, expressing Tg244440 in pHD1336. EV, empty vector control. Radiolabel concentration was 0.1 µM and uptake was measured over 60 s, in triplicate (average and SEM shown). Statistically significant differences between the control and the Tg244440-expressing cells were established using Student’s unpaired t-test. *, p < 0.05, **, p < 0.01, ***, p < 0.001.
as §1

[5] = test system: TbNBT-KO cells transfected with the empty vector (EV); experiment: [3H]-guanine and [3H]-hypoxanthine uptake in TbNBT-KO cells transfected with the empty vector (EV); format: cell-based, Trypanosoma brucei; conditions: for Rate of [3H]-hypoxanthine uptake, EV / Rate of [3H]-guanine uptake, EV: empty vector cells
Method: as §1, §2

[6] = test system: human adenosine kinase; parameters: method as in PMID 23592612, PMID 6363411, PMID 10722669, PMID 8982282; conditions: cited from earlier work
[7] = test system: TgAT2; parameters: method as in PMID 12865082; conditions: cited from earlier work; for Km: tachyzoites
[8] = test system: Tg244440; format: cell-based, Toxoplasma gondii; conditions: 0.1 μM [3H]-permeant, 60 s, clones B11, F5 and G10
Method: as §3, §1

[9] = test system: TgAT1; conditions: cited from earlier work
[10] = test system: human adenosine deaminase; parameters: method as in PMID 23592612, PMID 6363411, PMID 10722669, PMID 8982282; conditions: cited from earlier work
[11] = biological target: T1, Tg244440; conditions: Xenopus laevis oocytes, 10 µM [3H]-adenosine; cited from earlier work
[12] = test system: hENT1; parameters: method as in PMID 23592612, PMID 6363411, PMID 10722669, PMID 8982282; conditions: cited from earlier work
[13] = test system: T. gondii; conditions: cited from earlier work
[14] = test system: O=c1[nH]cnc2nc[nH]c12; experiment: cells, lysate or membranes; conditions: other: 0.10 µM [3H]-hypoxanthine, 30 s, Michaelis-Menten; pH 7.3
[15] = test system: inosine transporter; conditions: tachyzoites; read-out: apparent Km; cited from earlier work
[16] = substrate: Nc1nc2nc[nH]c2c(=O)[nH]1; experiment: [3H]-guanine uptake and its inhibition in T. brucei TbNB-KO procyclics expressing Tg244440 (clone F5); format: cell-based, Toxoplasma gondii; conditions: other: 0.05 µM [3H]-guanine, 30 s, Michaelis-Menten; pH 7.3
[17] = [Permeant] 0.1 μM, over 60 s, listed as hypoxanthine
[18] = [Permeant] 1000 μM (unlabelled hypoxanthine to saturate the transporter)
[19] = [Permeant] 25 μM (unlabelled guanine to saturate the transporter)

## O=c1[nH]cnc2nc[nH]c12 [Hypoxanthine]
[1]; Ki
  Ki: 2.26 ± 0.36 µM
[1]
  Sum of δ(ΔG^0) for the 7-deaza and 9-deaza analogues: 15.8 kJ/mol
  ΔG^0 (Gibbs free energy of interaction): -32.2 kJ/mol
  δ(ΔG^0) relative to Guanine: 1.5 kJ/mol
  Summation of the Gibbs free energy of the proposed interactions (binding model), Σ: -33.5 kJ/mol
[2]; [Permeant] 0.1 μM, over 60 s
  Rate of [3H]-hypoxanthine uptake, +Tg244440: 0.048 ± 0.0004 pmol(10^7 Cells)^−1s^−1
[2]; [17]
  Rate of [3H]-hypoxanthine uptake, +Tg244440: 0.048 pmol(10^7 Cells)^−1s^−1
[2]; [18]
  Rate of [3H]-hypoxanthine uptake, +Tg244440: −0.01 ± 0.01 pmol(10^7 Cells)^−1s^−1
[3]
  Km: 910 nM
[4]
  Uptake of radiolabelled permeant in Tg244440 clones compared to empty vector: highly significant increases
[5]; 0.10 µM [3H]-hypoxanthine over 60 s
  Slope of uptake in EV control lower than in +Tg244440 clone F5: 86.2%
[5]; [Permeant] 0.1 μM, over 60 s
  Rate of [3H]-hypoxanthine uptake, EV: 0.0066 ± 0.0007 pmol(10^7 Cells)^−1s^−1
[5]; [17]
  Rate of [3H]-hypoxanthine uptake, EV: 0.0066 pmol(10^7 Cells)^−1s^−1
[5]; [18]
  Rate of [3H]-hypoxanthine uptake, EV: 0.00055 pmol(10^7 Cells)^−1s^−1

## Nc1nc2nc[nH]c2c(=O)[nH]1 [Guanine]
[1]; [Permeant] 0.05 μM, over 60 s
  Rate of [3H]-guanine uptake, +Tg244440: 0.037 ± 0.003 pmol(10^7 Cells)^−1s^−1
[1]; [Permeant] 0.05 μM, over 60 s, listed as guanine
  Rate of [3H]-guanine uptake, +Tg244440: 0.037 pmol(10^7 Cells)^−1s^−1
[1]; [19]
  Rate of [3H]-guanine uptake, +Tg244440: 0.00092 ± 0.00067 pmol(10^7 Cells)^−1s^−1
[1]
  Sum of δ(ΔG^0) for the 7-deaza and 9-deaza analogues: 14.2 kJ/mol
  ΔG^0 (Gibbs free energy of interaction): -33.7 kJ/mol
[4]
  Uptake of radiolabelled permeant in Tg244440 clones compared to empty vector: highly significant increases
[5]; [Permeant] 0.05 μM, over 60 s
  Rate of [3H]-guanine uptake, EV: 0.00059 pmol(10^7 Cells)^−1s^−1
[5]; [19]
  Rate of [3H]-guanine uptake, EV: 0.0015 ± 0.0002 pmol(10^7 Cells)^−1s^−1

## Nc1ncnc2c1ncn2[C@@H]1O[C@H](CO)[C@@H](O)[C@H]1O [Adenosine]
[6]
  Km: 200 to 400 nM
[1]
  Affinity for Tg244440 (in words): Low affinity
  ΔG^0 (Gibbs free energy of interaction): -23.8 kJ/mol
  δ(ΔG^0) relative to Adenine: -4.5 kJ/mol
  Summation of the Gibbs free energy of the proposed interactions (binding model), Σ: -20.8 kJ/mol
[1]; Ki
  Ki: 68.2 ± 2.86 µM
[1]; ratio of Ki values
  Fold higher affinity than adenine: 6 fold
  Fold lower affinity than inosine and guanosine: about 20 fold
[1]; listed as adenosine
  δ(ΔG^0) relative to Adenine: 4.5 kJ/mol
[7]
  Km: 490 nM
[8]
  Uptake of radiolabelled permeant in Tg244440 clones compared to empty vector: No difference
[9]; adenosine transport
  Km: 120 µM
[9]; for its substrates
  Km: > 100 µM
[10]
  Km: 49 µM
[11]
  Km: 114 ± 37 µM
[12]
  Km: 40 to 60 µM

## OC[C@@H]1CC[C@H](n2cnc3c(O)ncnc32)O1 [2′,3′-dideoxyinosine]
[1]; Ki
  Ki: 698 ± 52 µM
[1]
  ΔG^0 (Gibbs free energy of interaction): -18.0 kJ/mol
  δ(ΔG^0) relative to Inosine: 12.8 kJ/mol
[13]
  Activity against T. gondii (in words): active in vitro and in vivo

## Tg244440 (Toxoplasma gondii ME49)
[14]
  Km: 1 µM and 0.79 ± 0.06 µM

## Nc1ncnc2c1ncn2[C@@H]1O[C@H](CO)[C@@H](O)[C@@H]1O [Adenine arabinoside (Ara-A), Adenine arabinoside]
[1]
  Affinity for Tg244440 (in words): low affinity
  ΔG^0 (Gibbs free energy of interaction): -20.0 kJ/mol
[1]; read-out: Ki
  Ki: 310 ± 14 µM
[1]; relative to Adenosine
  δ(ΔG^0) relative to Adenosine: 3.75 kJ/mol
[7]
  Ki: 2900 nM
[13]
  Activity against T. gondii (in words): moderately active

## O=c1[nH]cnc2c1ncn2[C@@H]1O[C@H](CO)[C@@H](O)[C@H]1O [Inosine]
[1]; Ki
  Ki: 4.05 ± 1.37 µM
[1]
  ΔG^0 (Gibbs free energy of interaction): -30.8 kJ/mol
[1]; relative to Hypoxanthine
  δ(ΔG^0) relative to Hypoxanthine: 1.4 kJ/mol
[7]
  Km: 770 nM
[9]; for its substrates
  Km: > 100 µM
[15]
  Km: 81 µM

## Cc1cn([C@H]2C[C@H](O)[C@@H](CO)O2)c(=O)[nH]c1=O [thymidine]
[4]
  Uptake of radiolabelled permeant in Tg244440 clones compared to empty vector: only slightly increased

## Nc1nc2c(ncn2[C@@H]2O[C@H](CO)[C@@H](O)[C@H]2O)c(=O)[nH]1 [Guanosine]
[1]; Ki
  Ki: 3.3 ± 0.3 µM
[1]
  ΔG^0 (Gibbs free energy of interaction): -31.3 kJ/mol
  δ(ΔG^0) relative to Guanine: 2.4 kJ/mol

## C[C@H]1O[C@@H](n2cnc3c(O)ncnc32)[C@H](O)[C@@H]1O [5′-deoxyinosine]
[1]; Ki
  Ki: 35.3 ± 3 µM
[1]
  ΔG^0 (Gibbs free energy of interaction): -25.4 kJ/mol
  δ(ΔG^0) relative to Inosine: 5.4 kJ/mol

## Nc1nc(N)c2[nH]cnc2n1 [2,6-diaminopurine]
[1]; Ki
  Ki: 211 ± 3.5 µM
[1]
  ΔG^0 (Gibbs free energy of interaction): -21.0 kJ/mol
  δ(ΔG^0) relative to Adenine: -1.7 kJ/mol

B1: Tg244440 (Toxoplasma gondii ME49) (protein)
chain: T1 sequence (A0A125YNC9 1-462)
[16]
  Km: 1 µM
